Test results published in US20060148876A1, “Nr3b1 nuclear receptor binding 3-substituted pyrazoles” (priority 2002, published 2006).
“Also recorded” adds a separate entry of the source.

Tests used:
MDA-MB-231 cells = assay: Cell proliferation assay (CellTiter 96) in ER negative breast cancer cells; type: cell-based; details: 6 days treatment
Method: (§1) Cells were seeded in 96-well plates at a density of 15,000 (MDA-MB-231) or 10,000 (T47D) cells/100 μl/well in phenol red-free DMEM (Gibco-BRL) containing 10% (MDA-MB-231) or 2% (T47D) charcoal dextran treated FBS (Perbio Science GmbH). Treatment media containing either 0.1% DMSO (control) or 0.1% DMSO with increasing concentrations of compounds (as indicated) were added on the following day and replaced at 72 h intervals until the end of the experiment. At 6 days (MDA-MB-231) or 8 days (T47D) after initiation of the treatment a colorimetric proliferation assay was performed using CellTiter 96 Aqueous nonradioactive proliferation assay as directed by the manufacturer (Promega). Cell proliferation rates were measured as absorbance of the formazan product at 490 nm. Values are expressed as percentage of control (DMSO) and represent the means of three replicates.

T47D cells = assay: Cell proliferation assay (CellTiter 96) in ER positive breast cancer cells; type: cell-based; details: 8 days treatment, 1 nM to 100 nM
Method: as §1

human ERR alpha (NR3B1) = assay: In vitro LANCE (TR-FRET) screening for compounds which influence ERRa binding to coactivator SRC1 peptide; type: biochemical; details: see figures
Method: The present invention relates to a compound as described above wherein said compounds is capable of binding the NR3B1 receptor protein or a portion thereof according to SEQ ID NO. 1 (cf. FIG. 3 A to D) or a mammalian homologue thereof. The claimed compound can bind to the NR3B1 receptor protein or a portion thereof in a mixture comprising 10-200 ng of NR3B1 receptor protein or a portion thereof, preferably the ligand binding domain, 20 mM Tris/HCl at pH 7.9; 60 mM KCl; 5 mM MgCl2; 160 ng/μl BSA in a total volume of preferably about 25 μl.
For screening purposes a fragment of the open reading frame of human ERR alpha (NR3B1-(Acc. No: NM_004451)) encoding aminoacids […] was amplified by standard RT PCR procedures (see figures; SEQ ID NO. 1 and 2). […]
For screening of compound libraries as provided for by the methods shown below in the examples for substances which influence the ERRa/SRC1 interaction, the Perkin Elmer LANCE technology was applied. […] For ease of handling and reduction of background from compound fluorescence LANCE technology makes use of generic fluorophore labels and time resoved detection (for detailed description see Hemmilä I, Blomberg K and Hurskainen P, Time-resolved resonance energy transfer (TRFRET) principle in LANCE, Abstract of Papers Presented at the 3 rd Annual Conference of the Society for Biomolecular Screening, September, California (1997)). […]

C[C@]12CC[C@@H]3c4ccc(O)cc4CC[C@H]3[C@@H]1CC[C@@H]2O [17β-estradiol]
effect on proliferation of MDA-MB-231 cells (ER negative) (MDA-MB-231 cells): did not | effect on proliferation of T47D cells (ER positive) (T47D cells): stimulated | effect on proliferation of T47D cells (ER positive) (T47D cells; listed as E2): stimulate the growth

CC/C(=C(/CC)c1ccc(O)cc1)c1ccc(O)cc1 [DES, Diethylstilbestrol]
effect on proliferation of MDA-MB-231 cells (ER negative) (MDA-MB-231 cells): inhibited proliferation; also recorded: inhibit growth | effect on proliferation of T47D cells (ER positive) (T47D cells): stimulated; also recorded: stimulate the growth

Cc1ccc(C)c(-c2cc(-c3ccc(O)cc3)nn2C)c1 [formula 5]
active as antagonist of the NR3B1 human nuclear receptor (human ERR alpha (NR3B1)): active as antagonist

Cc1cc(C)cc(-n2nc(-c3ccc(O)cc3)cc2-c2ccc(C)o2)c1 [formula 6]
active as antagonist of the NR3B1 human nuclear receptor (human ERR alpha (NR3B1)): active as antagonist
